This is an account of results in publication PMC12595434, “Development of retinoid nuclear receptor pathway antagonists through targeting aldehyde dehydrogenase 1A3” (iScience, 2025).

Like-named read-outs stand apart in the source and are kept apart here. A value given as a limit tells only on which side of the number the result lay.

In one data set the target is CYP2D6 (Homo sapiens, UniProt P10635). The experiment in a line: CYP inhibition. Type of data set: in vitro ADME.
Another data set addresses T1, mouse ALDH1A3 (Mus musculus, UniProt Q9JHW9).
T1 construct: made in house; host or cells: BL21-DE3 E. coli
T1 sequence (Q9JHW9 1-512): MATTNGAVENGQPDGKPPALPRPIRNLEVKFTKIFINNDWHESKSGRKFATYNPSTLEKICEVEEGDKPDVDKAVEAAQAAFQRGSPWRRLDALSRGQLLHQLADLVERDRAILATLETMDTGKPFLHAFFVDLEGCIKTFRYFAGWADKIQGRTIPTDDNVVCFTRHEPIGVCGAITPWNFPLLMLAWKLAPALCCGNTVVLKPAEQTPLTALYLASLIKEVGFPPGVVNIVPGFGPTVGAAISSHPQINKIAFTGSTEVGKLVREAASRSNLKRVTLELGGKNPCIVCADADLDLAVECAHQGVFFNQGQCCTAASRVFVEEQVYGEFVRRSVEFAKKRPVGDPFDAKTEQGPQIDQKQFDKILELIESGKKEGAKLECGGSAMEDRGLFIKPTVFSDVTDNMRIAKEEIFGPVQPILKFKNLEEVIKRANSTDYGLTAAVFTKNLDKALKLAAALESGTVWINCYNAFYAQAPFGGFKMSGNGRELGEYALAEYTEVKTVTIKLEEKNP
The experiment in a line: Recombinant enzyme activity assay. The class given is biochemical.

In the next data set the target is T2, human ALDH1A2 (Homo sapiens, UniProt O94788).
T2 construct: made in house; host or cells: BL21-DE3 E. coli
T2 sequence (O94788 1-518): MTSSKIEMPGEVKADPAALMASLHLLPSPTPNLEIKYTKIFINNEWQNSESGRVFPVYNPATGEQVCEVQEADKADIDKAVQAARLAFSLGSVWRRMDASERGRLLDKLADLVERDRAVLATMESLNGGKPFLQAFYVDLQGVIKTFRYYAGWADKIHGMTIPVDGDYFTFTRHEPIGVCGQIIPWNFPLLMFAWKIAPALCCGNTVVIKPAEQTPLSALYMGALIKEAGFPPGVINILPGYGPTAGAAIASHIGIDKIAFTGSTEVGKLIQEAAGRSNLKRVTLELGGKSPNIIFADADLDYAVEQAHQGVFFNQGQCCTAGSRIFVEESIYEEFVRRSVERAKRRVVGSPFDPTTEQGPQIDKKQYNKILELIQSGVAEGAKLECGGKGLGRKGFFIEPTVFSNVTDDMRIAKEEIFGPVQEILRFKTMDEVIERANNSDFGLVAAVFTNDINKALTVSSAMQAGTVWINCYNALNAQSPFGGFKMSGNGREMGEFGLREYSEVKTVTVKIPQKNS
Kind of data set: Recombinant enzyme activity assay. Type of data set: biochemical. The settings on record: for IC50: recombinant activity assay (Table 1), read-out: IC50 molecular, human ALDH1A2.

In a further data set the target is T3, human ALDH1A1 (Homo sapiens, UniProt P00352).
T3 construct: made in house; host or cells: BL21-DE3 E. coli
T3 sequence (P00352 1-501): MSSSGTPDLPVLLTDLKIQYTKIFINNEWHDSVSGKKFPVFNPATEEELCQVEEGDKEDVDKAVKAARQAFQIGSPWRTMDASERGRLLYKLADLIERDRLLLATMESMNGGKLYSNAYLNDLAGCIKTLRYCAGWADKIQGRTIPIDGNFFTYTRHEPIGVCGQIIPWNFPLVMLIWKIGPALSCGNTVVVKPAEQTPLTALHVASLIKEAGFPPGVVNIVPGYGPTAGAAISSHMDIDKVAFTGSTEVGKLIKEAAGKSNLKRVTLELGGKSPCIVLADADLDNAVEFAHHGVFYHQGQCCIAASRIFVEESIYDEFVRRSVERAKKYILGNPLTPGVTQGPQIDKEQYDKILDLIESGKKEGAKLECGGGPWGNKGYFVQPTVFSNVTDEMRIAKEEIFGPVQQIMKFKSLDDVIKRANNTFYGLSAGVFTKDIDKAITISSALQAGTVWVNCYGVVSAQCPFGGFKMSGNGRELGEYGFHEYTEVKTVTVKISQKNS
The experiment in a line: Recombinant enzyme activity assay. Type of data set: biochemical. Particulars: dose titration, up to 10 μM.

Another data set has as its target CYP2C9 (Homo sapiens, UniProt P11712). Kind of data set: CYP inhibition. Type of data set: in vitro ADME.
The target of another data set is CYP3A4 (Homo sapiens, UniProt P08684). Kind of data set: CYP inhibition. The class given is in vitro ADME.
A further data set has as its target CYP1A2 (Homo sapiens, UniProt P05177). Kind of data set: CYP inhibition. Type of data set: in vitro ADME.
Data set [1] is described as follows: IV/PO pharmacokinetics in fasted male CD-1 mice.
The next data set has as its target hERG (Homo sapiens, UniProt Q12809). Kind of data set: hERG dofetilide binding assay. For orientation: Block of hERG is tested as a sign of cardiac risk.
Setting [2] is: 1 mg/kg IV and 10 mg/kg PO, fasted male CD1 mice.

CYP2D6, sequence (P10635 whole entry): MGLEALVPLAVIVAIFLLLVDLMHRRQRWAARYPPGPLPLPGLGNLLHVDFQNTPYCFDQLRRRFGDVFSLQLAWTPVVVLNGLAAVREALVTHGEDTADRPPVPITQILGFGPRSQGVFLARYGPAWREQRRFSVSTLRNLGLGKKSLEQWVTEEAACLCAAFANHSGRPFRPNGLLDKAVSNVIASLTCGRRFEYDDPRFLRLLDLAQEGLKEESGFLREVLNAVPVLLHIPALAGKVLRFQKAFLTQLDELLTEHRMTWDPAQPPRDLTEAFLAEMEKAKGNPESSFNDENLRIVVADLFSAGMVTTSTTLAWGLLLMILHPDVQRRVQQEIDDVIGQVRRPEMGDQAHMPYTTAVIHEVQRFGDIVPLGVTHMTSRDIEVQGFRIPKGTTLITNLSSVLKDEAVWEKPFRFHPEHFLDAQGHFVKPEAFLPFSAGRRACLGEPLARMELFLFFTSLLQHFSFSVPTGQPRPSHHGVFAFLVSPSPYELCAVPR
hERG, sequence (Q12809 whole entry): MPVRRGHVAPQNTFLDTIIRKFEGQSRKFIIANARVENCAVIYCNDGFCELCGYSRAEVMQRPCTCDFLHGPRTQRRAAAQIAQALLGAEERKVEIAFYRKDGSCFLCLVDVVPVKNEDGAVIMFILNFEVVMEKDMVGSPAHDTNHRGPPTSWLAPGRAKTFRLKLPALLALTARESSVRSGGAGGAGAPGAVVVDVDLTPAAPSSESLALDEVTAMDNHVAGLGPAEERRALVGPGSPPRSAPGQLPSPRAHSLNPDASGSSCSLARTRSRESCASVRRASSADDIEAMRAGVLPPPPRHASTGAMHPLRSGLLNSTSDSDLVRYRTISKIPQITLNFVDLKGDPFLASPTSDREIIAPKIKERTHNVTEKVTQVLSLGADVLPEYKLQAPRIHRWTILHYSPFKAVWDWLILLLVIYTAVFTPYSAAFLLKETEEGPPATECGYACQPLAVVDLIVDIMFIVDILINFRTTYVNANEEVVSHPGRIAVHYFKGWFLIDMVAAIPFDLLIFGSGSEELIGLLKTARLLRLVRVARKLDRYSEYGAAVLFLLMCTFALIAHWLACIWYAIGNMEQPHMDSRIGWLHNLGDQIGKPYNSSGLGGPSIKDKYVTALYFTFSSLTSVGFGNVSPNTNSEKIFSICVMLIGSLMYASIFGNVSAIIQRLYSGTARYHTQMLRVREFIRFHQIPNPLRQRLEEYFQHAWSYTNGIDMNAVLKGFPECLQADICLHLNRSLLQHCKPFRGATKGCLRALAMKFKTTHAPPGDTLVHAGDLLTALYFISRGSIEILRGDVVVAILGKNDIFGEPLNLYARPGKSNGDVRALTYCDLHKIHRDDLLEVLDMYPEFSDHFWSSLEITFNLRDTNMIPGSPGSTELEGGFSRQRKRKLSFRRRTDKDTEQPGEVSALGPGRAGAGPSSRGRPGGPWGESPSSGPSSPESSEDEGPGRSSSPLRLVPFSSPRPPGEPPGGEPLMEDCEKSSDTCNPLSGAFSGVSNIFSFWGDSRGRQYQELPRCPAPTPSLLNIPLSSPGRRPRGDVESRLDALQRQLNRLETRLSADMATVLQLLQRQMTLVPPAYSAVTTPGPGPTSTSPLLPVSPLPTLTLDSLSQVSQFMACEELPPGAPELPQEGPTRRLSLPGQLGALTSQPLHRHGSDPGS
CYP1A2, sequence (P05177 whole entry): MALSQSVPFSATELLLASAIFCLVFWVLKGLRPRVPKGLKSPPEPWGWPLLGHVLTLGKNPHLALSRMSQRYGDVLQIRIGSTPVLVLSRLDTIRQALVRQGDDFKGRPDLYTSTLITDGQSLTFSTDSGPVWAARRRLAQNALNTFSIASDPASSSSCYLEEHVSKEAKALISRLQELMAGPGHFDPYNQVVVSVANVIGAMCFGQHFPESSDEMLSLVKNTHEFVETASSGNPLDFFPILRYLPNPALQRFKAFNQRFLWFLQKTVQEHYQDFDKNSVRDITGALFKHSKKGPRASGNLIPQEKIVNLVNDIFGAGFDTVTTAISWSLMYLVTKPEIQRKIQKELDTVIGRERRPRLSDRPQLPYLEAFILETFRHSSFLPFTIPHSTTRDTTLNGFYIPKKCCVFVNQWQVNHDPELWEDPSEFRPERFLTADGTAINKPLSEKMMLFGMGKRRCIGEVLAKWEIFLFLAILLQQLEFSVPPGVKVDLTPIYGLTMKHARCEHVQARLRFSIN
CYP3A4, sequence (P08684 whole entry): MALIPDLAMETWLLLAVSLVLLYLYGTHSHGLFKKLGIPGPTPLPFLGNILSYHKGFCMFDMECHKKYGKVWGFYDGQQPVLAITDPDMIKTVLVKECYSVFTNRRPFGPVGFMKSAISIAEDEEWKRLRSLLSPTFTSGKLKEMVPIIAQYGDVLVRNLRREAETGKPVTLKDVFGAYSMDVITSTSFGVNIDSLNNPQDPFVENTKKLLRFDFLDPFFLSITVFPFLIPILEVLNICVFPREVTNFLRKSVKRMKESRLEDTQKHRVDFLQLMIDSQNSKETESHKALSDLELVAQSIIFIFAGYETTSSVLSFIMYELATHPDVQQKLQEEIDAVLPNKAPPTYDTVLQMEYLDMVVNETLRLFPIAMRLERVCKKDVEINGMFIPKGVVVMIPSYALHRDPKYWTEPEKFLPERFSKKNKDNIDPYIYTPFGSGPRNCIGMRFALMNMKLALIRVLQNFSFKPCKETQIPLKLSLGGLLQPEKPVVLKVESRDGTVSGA
CYP2C9, sequence (P11712 whole entry): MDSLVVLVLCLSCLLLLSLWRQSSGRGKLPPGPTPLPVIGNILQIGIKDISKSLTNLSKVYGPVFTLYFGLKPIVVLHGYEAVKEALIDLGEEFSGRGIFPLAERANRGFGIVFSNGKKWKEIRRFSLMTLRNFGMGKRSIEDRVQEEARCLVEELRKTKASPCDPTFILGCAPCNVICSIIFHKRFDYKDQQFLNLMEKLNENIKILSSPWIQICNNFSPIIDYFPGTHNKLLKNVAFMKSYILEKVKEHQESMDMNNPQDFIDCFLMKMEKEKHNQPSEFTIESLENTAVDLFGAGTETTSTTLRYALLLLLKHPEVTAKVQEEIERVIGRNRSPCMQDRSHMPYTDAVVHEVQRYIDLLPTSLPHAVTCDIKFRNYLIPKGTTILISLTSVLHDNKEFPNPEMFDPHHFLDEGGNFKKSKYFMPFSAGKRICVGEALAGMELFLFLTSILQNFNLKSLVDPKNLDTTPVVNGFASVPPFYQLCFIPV
Description for human ALDH1A1: Purified enzyme was used for biochemical and biophysical assays.
For the recombinant enzyme activity assay, enzyme aliquots were thawed on ice for 4 h prior to analysis and the protocol was performed as described[8] with the following key changes: 1) Final concentrations of NAD+ (Gold Bio) were 200 μM and BSA were 1 mg/mL 2) Propanaldehyde was used as the substrate for ALDH1A1 and ALDH2. 3) Reaction velocity was monitored through diaphorase (clostridium) coupled reduction of resazurin (100 μM) monitored with ex/em of 560nm/590 nm in order to regenerate NAD+ and thus maintain constant cofactor concentration as well as to avoid high absorbance values of many screening compounds at the NADH absorbance. Assays were conducted at room temperature (controlled to 21-23C) and all buffers were maintained at pH 7.5. For all reactions, pre-incubation time was approximately 2 min while the reaction monitoring was performed over 10 min.

Usually inhibition stands for the percentage by which the read-out fell short of the control. A lower inhibition goes with little suppression. A word on the IC50: it is the concentration at which inhibition is half-maximal. A word on the half-life: it is the time needed for the level to fall by half in the phase considered. Read a low half-life as rapid decline. `CCc1cnccc1C(=O)Nc1cc2c(cc1F)NC(=O)CC2` [MBE1, 3-ethyl-N-(7-fluoro-2-oxo-3,4-dihydro-1H-quinolin-6-yl)pyridine-4-carboxamide]: the inhibition at 10 µM against CYP2D6 worked out at 61.3%; at CYP2C9, 13.9%; against CYP3A4 it was 42%; against CYP1A2, 8.8%. For the same molecule, the IC50 is 0.209 µM on mouse ALDH1A3 (dose titration, substrate competition assay, recombinant mouse ALDH1A3, 4-parameter equation, read-out: muALDH1A3 IC50); 3.33 µM on human ALDH1A2; more than 30 µM on hERG. Also, at human ALDH1A2 (biochemical inhibition of each isoform), the “fold lower affinity for ALDH1A2 than for ALDH1A3” value was 4 fold. In addition, the “inhibitory activity against ALDH1A1 (in words)” value on human ALDH1A1 is listed as “no inhibition”. The molecule also returned an Oral bioavailability in data set [1] (1 mg/kg i.v. and 10 mg/kg PO, fasted male CD-1 mice) of 88.3%. This molecule also gave a half-life in data set [1] (male, CD-1, mouse, plasma, po, 10 mg/kg) of 1.37 h.
`CCc1ccccc1C(=O)Nc1cc2c(cc1F)NC(=O)CC2` [MBE1.5, 2-ethyl-N-(7-fluoro-2-oxo-3,4-dihydro-1H-quinolin-6-yl)benzamide]: the inhibition at 10 µM against CYP2D6 stood at 0%; on CYP2C9, 5.6%; against CYP3A4, 6.3%; against CYP1A2 it was 11.6%. In addition, the IC50 is 0.149 µM on mouse ALDH1A3 (recombinant activity assay (Table 1), read-out: IC50 molecular, mouse ALDH1A3); 5 µM at human ALDH1A2; more than 30 µM at hERG. Also, the “inhibitory activity against ALDH1A2 (in words)” value on human ALDH1A2 (dose titration, up to 10 μM) was “minimal inhibition”. For the same molecule, on human ALDH1A1, the “inhibitory activity against ALDH1A1 (in words)” value is given as “no inhibition”. For the same molecule, the “bioavailability compared with MBE1 (in words)” value in data set [1] (setting [2]) was “reduced bioavailability”. The “half-life compared with MBE1 (in words)” value in [1] (setting [2]) is given as “improved half-life”.
